Test results taken from ChEMBL document CHEMBL1130655, “Nonpeptide oxytocin antagonists: potent, orally bioavailable analogs of L-371,257 containing a 1-R-(pyridyl)ethyl ether terminus” (Bioorg Med Chem Lett, 1998).

What was measured:
[1] = molecular target: T1, Oxytocin receptor (Homo sapiens, UniProt P30559); experiment: Binding affinity against cloned human oxytocin receptor from human embryonic kidney cells; format: cell-based
T1 sequence (P30559 whole entry): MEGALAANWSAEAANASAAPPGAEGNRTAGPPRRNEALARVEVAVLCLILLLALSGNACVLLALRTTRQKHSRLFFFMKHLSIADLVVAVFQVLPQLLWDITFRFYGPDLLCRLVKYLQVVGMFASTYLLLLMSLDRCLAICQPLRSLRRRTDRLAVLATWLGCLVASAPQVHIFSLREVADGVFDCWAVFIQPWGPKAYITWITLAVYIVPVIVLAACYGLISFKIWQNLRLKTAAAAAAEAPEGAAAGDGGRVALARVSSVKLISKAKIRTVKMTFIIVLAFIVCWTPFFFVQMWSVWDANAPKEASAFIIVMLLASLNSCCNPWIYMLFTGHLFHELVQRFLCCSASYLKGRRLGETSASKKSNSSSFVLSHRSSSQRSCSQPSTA

[2] = Half life period after 3 mg/kg iv administration in rat; format: ADME, organism-based; parameters: dose 3 mg/kg, route intravenous; conditions: in vivo
[3] = organism: Rattus norvegicus; experiment: Compound was evaluated for its ability to antagonize rat OT-induced uterine contractile response in the vehicle treated group by 50%; format: functional
[4] = molecular target: T2, Oxytocin receptor (Rattus norvegicus, UniProt P70536); experiment: Binding affinity against oxytocin receptor (rOTr) in DES pretreated rat uterine
T2 sequence (P70536 whole entry): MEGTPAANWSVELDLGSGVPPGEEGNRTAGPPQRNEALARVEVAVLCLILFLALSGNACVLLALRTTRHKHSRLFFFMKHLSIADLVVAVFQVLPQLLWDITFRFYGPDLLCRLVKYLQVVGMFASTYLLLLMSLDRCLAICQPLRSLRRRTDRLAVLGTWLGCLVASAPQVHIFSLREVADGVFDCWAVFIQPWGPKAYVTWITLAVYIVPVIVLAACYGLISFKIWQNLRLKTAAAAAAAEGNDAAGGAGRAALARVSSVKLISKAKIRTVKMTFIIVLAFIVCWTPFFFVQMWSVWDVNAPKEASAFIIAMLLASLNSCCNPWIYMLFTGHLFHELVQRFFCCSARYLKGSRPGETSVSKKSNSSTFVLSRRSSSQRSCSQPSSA

[5] = Half life period after 3 mg/kg iv administration in the rat; format: ADME, organism-based; parameters: dose 3 mg/kg, route intravenous; conditions: in vivo
[6] = tested on: Rattus norvegicus; experiment: Maximum plasma concentration after 20 mg/kg oral administration in rat; format: ADME, organism-based; parameters: dose 20 mg/kg, route oral; conditions: in vivo
[7] = Oral bioavailability in rat; format: ADME, organism-based; conditions: in vivo

Row | SMILES | Ki [1] [nM] | AD50 [3] [mg/kg] | further results
1 | CCC(Oc1ccc(C(=O)N2CCC(N3C(=O)OCc4ccccc43)CC2)c(OC)c1)c1ccccc1 (stereo not given) | 58 |  | 
2 | COc1cc(OC(C)c2ccccc2)ccc1C(=O)N1CCC(N2C(=O)OCc3ccccc32)CC1 (stereo not given) |  |  | half-life [2]: < 30 min
3 | CCOc1ccc(C(=O)N2CCC(N3C(=O)OCc4ccccc43)CC2)c(OC)c1 | 15 |  | 
4 | COc1cc(OC(C)C)ccc1C(=O)N1CCC(N2C(=O)OCc3ccccc32)CC1 | 17 |  | 
5 | COc1cc(OC(C)c2cccnc2)ccc1C(=O)N1CCC(N2C(=O)OCc3ccccc32)CC1 (stereo not given) |  | 1.2 | 
6 | COc1cc(O[C@H](C)c2cc[n+]([O-])cc2)c(F)cc1C(=O)N1CCC(N2C(=O)OCc3ccccc32)CC1 | 7.34 | 0.78 | Ki [4]: 9.9 nM
7 | COc1cc(OC2CCN(C(C)=O)CC2)ccc1C(=O)N1CCC(N2C(=O)OCc3ccccc32)CC1 | 9.3 | 0.55 | half-life [5]: ~30 min; Cmax [6]: 3.3 uM equiv; bioavailability [7]: 39%
8 | COc1ccc(C(=O)N2CCC(N3C(=O)OCc4ccccc43)CC2)c(OC)c1 | 87 |  | Ki [4]: 120 nM
